Calls of active or inactive are those of the source. The calls are words filed in the database; no cut-off is given here.
Experiments:
[1] = test system: Rattus norvegicus; experiment: Effect on PNMT protein expression level in Sprague-Dawley rat at 1 mg, sc once daily treated for 20 days and measured after 24 hrs post last dose by western blot analysis; format: functional, organism-based; settings: time 20.0 day
[2] = test system: Rattus norvegicus; experiment: In vivo inhibition of PNMT in Sprague-Dawley rat assessed as increase in norepinephrine level in adrenal gland at 1 mg, sc administered once daily for 20 days and measured after 24 hrs post last dose by liquid chromatography tandem mass spectrometry analysis; format: functional, organism-based; settings: time 20.0 day
[3] = molecular target: T1, Phenylethanolamine N-methyltransferase (Homo sapiens) (UniProt P11086); experiment: Inhibition of human recombinant PNMT using AdoMet and DL-norepinephrine hydrocloride as substrate preincubated for 30 mins followed by substrate addition and measured after 30 mins by fluorescence based analysis relative to control; settings: time 1.0 hrs
T1 sequence (whole entry): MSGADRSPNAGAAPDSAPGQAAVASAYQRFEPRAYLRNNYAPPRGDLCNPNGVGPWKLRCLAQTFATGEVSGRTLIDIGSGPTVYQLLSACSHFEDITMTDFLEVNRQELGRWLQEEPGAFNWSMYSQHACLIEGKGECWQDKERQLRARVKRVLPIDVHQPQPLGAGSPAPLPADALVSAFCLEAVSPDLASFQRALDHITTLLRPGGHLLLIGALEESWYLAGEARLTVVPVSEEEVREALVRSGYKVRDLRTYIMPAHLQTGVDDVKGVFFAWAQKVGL

[4] = test system: Rattus norvegicus; experiment: In vivo inhibition of PNMT in Sprague-Dawley rat assessed as decrease in epinephrine level in adrenal gland at 1 mg, sc once daily treated for 20 days and measured after 24 hrs post last dose by liquid chromatography tandem mass spectrometry analysis; format: functional, organism-based; settings: time 20.0 day

| SMILES | Activity [1] | Activity [2] | inhibition [3] [%] | Activity [4] |
| --- | --- | --- | --- | --- |
| CC(C)(C)NC(=O)[C@H]1CC[C@H]2[C@@H]3CC[C@H]4NC(=O)C=C[C@]4(C)[C@H]3CC[C@]12C | inactive | Active | > 30 | Active |
| CC(N)c1cccc(Cl)c1Cl (stereo not given) | – | – | 60 | – |

From ChEMBL document CHEMBL5029141, “Three-Dimensional Proteome-Wide Scale Screening for the 5-Alpha Reductase Inhibitor Finasteride: Identification of a Novel Off-Target” (J Med Chem, 2021)
